Calls of active or inactive are those of the source. No cut-off for these calls is given here.
Legend:
[1] = molecular target: Casein kinase II subunit alpha (Homo sapiens, UniProt P68400); assay: Displacement of fluorescent tracer from full-length human C-terminal NanoLuc-tagged CK2alpha expressed in HEK293T permeabilized cells measured after 2 hrs by NanoBRET assay; assay type: cell-based
[2] = molecular target: Casein kinase II subunit alpha' (Homo sapiens, UniProt P19784); assay: Displacement of fluorescent tracer from full-length human C-terminal NanoLuc-tagged CK2alpha' expressed in HEK293T permeabilized cells measured after 2 hrs by NanoBRET assay; assay type: cell-based
Chain of Casein kinase II subunit alpha' (P19784 whole entry, the tested form may be a part): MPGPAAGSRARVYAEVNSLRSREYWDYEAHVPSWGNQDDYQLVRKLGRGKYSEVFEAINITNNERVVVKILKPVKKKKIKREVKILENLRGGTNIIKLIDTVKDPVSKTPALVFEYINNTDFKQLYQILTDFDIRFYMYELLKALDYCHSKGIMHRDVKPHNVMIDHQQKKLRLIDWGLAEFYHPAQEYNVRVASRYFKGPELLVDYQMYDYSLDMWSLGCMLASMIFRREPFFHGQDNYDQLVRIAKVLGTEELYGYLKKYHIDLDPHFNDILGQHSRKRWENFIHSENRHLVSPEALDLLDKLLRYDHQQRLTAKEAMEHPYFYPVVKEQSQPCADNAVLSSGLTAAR

[3] = molecular target: Dual specificity tyrosine-phosphorylation-regulated kinase 1A (Homo sapiens) (UniProt Q13627); assay: Inhibition of wild-type human partial length DYRK1A (H129 to S509 residues) expressed in mammalian expression system at 1 uM by Kinomescan method
[4] = molecular target: Homeodomain-interacting protein kinase 1 (Homo sapiens) (UniProt Q86Z02); assay: Inhibition of wild-type human partial length HIPK1 (M146 to I555 residues) expressed in mammalian expression system at 1 uM by Kinomescan method
Chain of Homeodomain-interacting protein kinase 1 (Homo sapiens) (Q86Z02 whole entry, looked up, the tested form may be a part): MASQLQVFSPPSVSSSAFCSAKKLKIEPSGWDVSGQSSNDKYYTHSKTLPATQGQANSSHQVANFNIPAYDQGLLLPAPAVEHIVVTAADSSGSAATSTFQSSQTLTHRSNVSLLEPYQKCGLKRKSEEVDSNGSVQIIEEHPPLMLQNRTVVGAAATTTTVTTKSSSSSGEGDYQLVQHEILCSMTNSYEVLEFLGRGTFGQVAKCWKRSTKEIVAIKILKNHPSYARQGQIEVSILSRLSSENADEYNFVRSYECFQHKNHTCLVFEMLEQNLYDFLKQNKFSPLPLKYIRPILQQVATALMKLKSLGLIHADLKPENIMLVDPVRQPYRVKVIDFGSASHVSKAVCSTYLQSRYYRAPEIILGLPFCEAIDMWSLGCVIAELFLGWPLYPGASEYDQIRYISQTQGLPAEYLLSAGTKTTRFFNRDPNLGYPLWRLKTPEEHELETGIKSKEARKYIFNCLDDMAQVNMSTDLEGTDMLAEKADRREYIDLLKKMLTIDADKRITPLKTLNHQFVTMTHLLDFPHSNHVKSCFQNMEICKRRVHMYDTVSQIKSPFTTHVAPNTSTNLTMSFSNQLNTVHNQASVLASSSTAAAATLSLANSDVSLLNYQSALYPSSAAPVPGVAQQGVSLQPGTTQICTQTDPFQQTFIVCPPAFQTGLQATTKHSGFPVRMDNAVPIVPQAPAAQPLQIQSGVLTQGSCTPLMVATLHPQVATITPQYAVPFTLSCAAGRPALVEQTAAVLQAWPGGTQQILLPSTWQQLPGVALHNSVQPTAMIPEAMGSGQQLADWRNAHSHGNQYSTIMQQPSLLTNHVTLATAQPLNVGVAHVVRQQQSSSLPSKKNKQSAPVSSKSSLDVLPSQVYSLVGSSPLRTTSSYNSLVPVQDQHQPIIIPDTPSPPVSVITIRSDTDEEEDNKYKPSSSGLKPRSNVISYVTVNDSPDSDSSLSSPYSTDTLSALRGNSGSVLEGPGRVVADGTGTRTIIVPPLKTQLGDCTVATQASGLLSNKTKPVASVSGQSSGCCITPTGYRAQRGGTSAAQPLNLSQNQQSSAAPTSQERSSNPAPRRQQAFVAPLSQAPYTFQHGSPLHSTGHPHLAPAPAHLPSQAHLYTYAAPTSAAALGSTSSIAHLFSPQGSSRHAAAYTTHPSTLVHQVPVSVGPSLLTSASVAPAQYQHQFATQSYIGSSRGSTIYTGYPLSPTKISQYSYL

CCRF-CEM = assay: Cytotoxicity against human CCRF-CEM cells assessed as cell growth inhibition at 10 uM incubated for 48 hrs by SRB assay; assay type: functional, cell-based
HL-60(TB) = assay: Cytotoxicity against human HL-60(TB) cells assessed as cell growth inhibition at 10 uM incubated for 48 hrs by SRB assay; assay type: functional, cell-based
K562 = assay: Cytotoxicity against human K562 cells assessed as cell growth inhibition at 10 uM incubated for 48 hrs by SRB assay; assay type: functional, cell-based
MOLT-4 = assay: Cytotoxicity against human MOLT-4 cells assessed as cell growth inhibition at 10 uM incubated for 48 hrs by SRB assay; assay type: functional, cell-based
RPMI-8226 = assay: Cytotoxicity against human RPMI-8226 cells assessed as cell growth inhibition at 10 uM incubated for 48 hrs by SRB assay; assay type: functional, cell-based
SR = assay: Cytotoxicity against human SR cells assessed as cell growth inhibition at 10 uM incubated for 48 hrs by SRB assay; assay type: functional, cell-based
A549 = assay: Cytotoxicity against human A549 cells assessed as cell growth inhibition at 10 uM incubated for 48 hrs by SRB assay; assay type: functional, cell-based
EKVX = assay: Cytotoxicity against human EKVX cells assessed as cell growth inhibition at 10 uM incubated for 48 hrs by SRB assay; assay type: functional, cell-based
HOP-62 = assay: Cytotoxicity against human HOP-62 cells assessed as cell growth inhibition at 10 uM incubated for 48 hrs by SRB assay; assay type: functional, cell-based
HOP-92 = assay: Cytotoxicity against human HOP-92 cells assessed as cell growth inhibition at 10 uM incubated for 48 hrs by SRB assay; assay type: functional, cell-based
NCI-H226 = assay: Cytotoxicity against human NCI-H226 cells assessed as cell growth inhibition at 10 uM incubated for 48 hrs by SRB assay; assay type: functional, cell-based
NCI-H23 = assay: Cytotoxicity against human NCI-H23 cells assessed as cell growth inhibition at 10 uM incubated for 48 hrs by SRB assay; assay type: functional, cell-based
NCI-H322M = assay: Cytotoxicity against human NCI-H322M cells assessed as cell growth inhibition at 10 uM incubated for 48 hrs by SRB assay; assay type: functional, cell-based
NCI-H460 = assay: Cytotoxicity against human NCI-H460 cells assessed as cell growth inhibition at 10 uM incubated for 48 hrs by SRB assay; assay type: functional, cell-based
NCI-H522 = assay: Cytotoxicity against human NCI-H522 cells assessed as cell growth inhibition at 10 uM incubated for 48 hrs by SRB assay; assay type: functional, cell-based
COLO 205 = assay: Cytotoxicity against human COLO 205 cells assessed as cell growth inhibition at 10 uM incubated for 48 hrs by SRB assay; assay type: functional, cell-based
HCC 2998 = assay: Cytotoxicity against human HCC 2998 cells assessed as cell growth inhibition at 10 uM incubated for 48 hrs by SRB assay; assay type: functional, cell-based
HCT-116 = assay: Cytotoxicity against human HCT-116 cells assessed as cell growth inhibition at 10 uM incubated for 48 hrs by SRB assay; assay type: functional, cell-based
HCT-15 = assay: Cytotoxicity against human HCT-15 cells assessed as cell growth inhibition at 10 uM incubated for 48 hrs by SRB assay; assay type: functional, cell-based
HT-29 = assay: Cytotoxicity against human HT-29 cells assessed as cell growth inhibition at 10 uM incubated for 48 hrs by SRB assay; assay type: functional, cell-based
KM12 = assay: Cytotoxicity against human KM12 cells assessed as cell growth inhibition at 10 uM incubated for 48 hrs by SRB assay; assay type: functional, cell-based
SW-620 = assay: Cytotoxicity against human SW-620 cells assessed as cell growth inhibition at 10 uM incubated for 48 hrs by SRB assay; assay type: functional, cell-based
SF-268 = assay: Cytotoxicity against human SF-268 cells assessed as cell growth inhibition at 10 uM incubated for 48 hrs by SRB assay; assay type: functional, cell-based
SF-295 = assay: Cytotoxicity against human SF-295 cells assessed as cell growth inhibition at 10 uM incubated for 48 hrs by SRB assay; assay type: functional, cell-based
SF-539 = assay: Cytotoxicity against human SF-539 cells assessed as cell growth inhibition at 10 uM incubated for 48 hrs by SRB assay; assay type: functional, cell-based
SNB-19 = assay: Cytotoxicity against human SNB-19 cells assessed as cell growth inhibition at 10 uM incubated for 48 hrs by SRB assay; assay type: functional, cell-based
SNB-75 = assay: Cytotoxicity against human SNB-75 cells assessed as cell growth inhibition at 10 uM incubated for 48 hrs by SRB assay; assay type: functional, cell-based
U-251 = assay: Cytotoxicity against human U251 cells assessed as cell growth inhibition at 10 uM incubated for 48 hrs by SRB assay; assay type: functional, cell-based
LOX IMVI = assay: Cytotoxicity against human LOX IMVI cells assessed as cell growth inhibition at 10 uM incubated for 48 hrs by SRB assay; assay type: functional, cell-based
Malme-3M = assay: Cytotoxicity against human Malme-3M cells assessed as cell growth inhibition at 10 uM incubated for 48 hrs by SRB assay; assay type: functional, cell-based
M14 = assay: Cytotoxicity against human M14 cells assessed as cell growth inhibition at 10 uM incubated for 48 hrs by SRB assay; assay type: functional, cell-based
MDA-MB-435 = assay: Cytotoxicity against human MDA-MB-435 cells assessed as cell growth inhibition at 10 uM incubated for 48 hrs by SRB assay; assay type: functional, cell-based
SK-MEL-2 = assay: Cytotoxicity against human SK-MEL-2 cells assessed as cell growth inhibition at 10 uM incubated for 48 hrs by SRB assay; assay type: functional, cell-based
SK-MEL-28 = assay: Cytotoxicity against human SK-MEL-28 cells assessed as cell growth inhibition at 10 uM incubated for 48 hrs by SRB assay; assay type: functional, cell-based
SK-MEL-5 = assay: Cytotoxicity against human SK-MEL-5 cells assessed as cell growth inhibition at 10 uM incubated for 48 hrs by SRB assay; assay type: functional, cell-based
UACC-257 = assay: Cytotoxicity against human UACC-257 cells assessed as cell growth inhibition at 10 uM incubated for 48 hrs by SRB assay; assay type: functional, cell-based
UACC-62 = assay: Cytotoxicity against human UACC-62 cells assessed as cell growth inhibition at 10 uM incubated for 48 hrs by SRB assay; assay type: functional, cell-based
IGROV-1 = assay: Cytotoxicity against human IGROV-1 cells assessed as cell growth inhibition at 10 uM incubated for 48 hrs by SRB assay; assay type: functional, cell-based
OVCAR-3 = assay: Cytotoxicity against human OVCAR-3 cells assessed as cell growth inhibition at 10 uM incubated for 48 hrs by SRB assay; assay type: functional, cell-based
OVCAR-4 = assay: Cytotoxicity against human OVCAR-4 cells assessed as cell growth inhibition at 10 uM incubated for 48 hrs by SRB assay; assay type: functional, cell-based
OVCAR-5 = assay: Cytotoxicity against human OVCAR-5 cells assessed as cell growth inhibition at 10 uM incubated for 48 hrs by SRB assay; assay type: functional, cell-based
OVCAR-8 = assay: Cytotoxicity against human OVCAR-8 cells assessed as cell growth inhibition at 10 uM incubated for 48 hrs by SRB assay; assay type: functional, cell-based
NCI/ADR-RES = assay: Cytotoxicity against human NCI/ADR-RES cells assessed as cell growth inhibition at 10 uM incubated for 48 hrs by SRB assay; assay type: functional, cell-based
SK-OV-3 = assay: Cytotoxicity against human SK-OV-3 cells assessed as cell growth inhibition at 10 uM incubated for 48 hrs by SRB assay; assay type: functional, cell-based
786-0 = assay: Cytotoxicity against human 786-0 cells assessed as cell growth inhibition at 10 uM incubated for 48 hrs by SRB assay; assay type: functional, cell-based
A498 = assay: Cytotoxicity against human A498 cells assessed as cell growth inhibition at 10 uM incubated for 48 hrs by SRB assay; assay type: functional, cell-based
ACHN = assay: Cytotoxicity against human ACHN cells assessed as cell growth inhibition at 10 uM incubated for 48 hrs by SRB assay; assay type: functional, cell-based
CAKI-1 = assay: Cytotoxicity against human CAK1 cells assessed as cell growth inhibition at 10 uM incubated for 48 hrs by SRB assay; assay type: functional, cell-based
RXF 393 = assay: Cytotoxicity against human RXF 393 cells assessed as cell growth inhibition at 10 uM incubated for 48 hrs by SRB assay; assay type: functional, cell-based
SN12C = assay: Cytotoxicity against human SN12C cells assessed as cell growth inhibition at 10 uM incubated for 48 hrs by SRB assay; assay type: functional, cell-based
TK-10 = assay: Cytotoxicity against human TK-10 cells assessed as cell growth inhibition at 10 uM incubated for 48 hrs by SRB assay; assay type: functional, cell-based
UO-31 = assay: Cytotoxicity against human UO-31 cells assessed as cell growth inhibition at 10 uM incubated for 48 hrs by SRB assay; assay type: functional, cell-based
PC-3 = assay: Cytotoxicity against human PC-3 cells assessed as cell growth inhibition at 10 uM incubated for 48 hrs by SRB assay; assay type: functional, cell-based
DU-145 = assay: Cytotoxicity against human DU-145 cells assessed as cell growth inhibition at 10 uM incubated for 48 hrs by SRB assay; assay type: functional, cell-based
MCF7 = assay: Cytotoxicity against human MCF7 cells assessed as cell growth inhibition at 10 uM incubated for 48 hrs by SRB assay; assay type: functional, cell-based
MDA-MB-231 = assay: Cytotoxicity against human MDA-MB-231 cells assessed as cell growth inhibition at 10 uM incubated for 48 hrs by SRB assay; assay type: functional, cell-based
MDA-MB-468 = assay: Cytotoxicity against human MDA-MB-468 cells assessed as cell growth inhibition at 10 uM incubated for 48 hrs by SRB assay; assay type: functional, cell-based
Hs-578T = assay: Cytotoxicity against human Hs-578T cells assessed as cell growth inhibition at 10 uM incubated for 48 hrs by SRB assay; assay type: functional, cell-based
T47D = assay: Cytotoxicity against human T47D cells assessed as cell growth inhibition at 10 uM incubated for 48 hrs by SRB assay; assay type: functional, cell-based
BT-549 = assay: Cytotoxicity against human BT-549 cells assessed as cell growth inhibition at 10 uM incubated for 48 hrs by SRB assay; assay type: functional, cell-based

Chain of Casein kinase II subunit alpha (P68400 whole entry): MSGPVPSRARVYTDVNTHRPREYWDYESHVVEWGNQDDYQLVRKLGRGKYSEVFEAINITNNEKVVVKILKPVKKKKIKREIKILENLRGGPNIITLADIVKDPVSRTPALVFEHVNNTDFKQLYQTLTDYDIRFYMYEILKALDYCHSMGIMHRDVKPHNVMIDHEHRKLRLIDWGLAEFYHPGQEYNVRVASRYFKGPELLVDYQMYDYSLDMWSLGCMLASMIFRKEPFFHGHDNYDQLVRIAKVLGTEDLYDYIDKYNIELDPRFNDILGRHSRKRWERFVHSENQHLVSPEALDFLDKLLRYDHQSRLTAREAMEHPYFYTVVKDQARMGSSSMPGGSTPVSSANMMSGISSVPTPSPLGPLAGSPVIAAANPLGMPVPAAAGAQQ

O=C(O)c1ccc2cc1OCCOCCNc1ccn3ncc-2c3n1
IC50 [1]: 75 nM
IC50 [2]: 303 nM

CC(C)(C)OC(=O)N(CCOCCO)c1ccn2ncc(-c3ccc(C(=O)O)c(O)c3)c2n1
inhibition [3]: inactive
inhibition [4]: inactive
Activity (CCRF-CEM): inactive
Activity (HL-60(TB)): inactive
Activity (K562): inactive
Activity (MOLT-4): inactive
Activity (RPMI-8226): inactive
Activity (SR): inactive
Activity (A549): inactive
Activity (EKVX): inactive
Activity (HOP-62): inactive
Activity (HOP-92): inactive
Activity (NCI-H226): inactive
Activity (NCI-H23): inactive
Activity (NCI-H322M): inactive
Activity (NCI-H460): inactive
Activity (NCI-H522): inactive
Activity (COLO 205): inactive
Activity (HCC 2998): inactive
Activity (HCT-116): inactive
Activity (HCT-15): inactive
Activity (HT-29): inactive
Activity (KM12): inactive
Activity (SW-620): inactive
Activity (SF-268): inactive
Activity (SF-295): inactive
Activity (SF-539): inactive
Activity (SNB-19): inactive
Activity (SNB-75): inactive
Activity (U-251): inactive
Activity (LOX IMVI): inactive
Activity (Malme-3M): inactive
Activity (M14): inactive
Activity (MDA-MB-435): inactive
Activity (SK-MEL-2): inactive
Activity (SK-MEL-28): inactive
Activity (SK-MEL-5): inactive
Activity (UACC-257): inactive
Activity (UACC-62): inactive
Activity (IGROV-1): inactive
Activity (OVCAR-3): inactive
Activity (OVCAR-4): inactive
Activity (OVCAR-5): inactive
Activity (OVCAR-8): inactive
Activity (NCI/ADR-RES): inactive
Activity (SK-OV-3): inactive
Activity (786-0): inactive
Activity (A498): inactive
Activity (ACHN): inactive
Activity (CAKI-1): inactive
Activity (RXF 393): inactive
Activity (SN12C): inactive
Activity (TK-10): inactive
Activity (UO-31): inactive
Activity (PC-3): inactive
Activity (DU-145): inactive
Activity (MCF7): inactive
Activity (MDA-MB-231): inactive
Activity (MDA-MB-468): inactive
Activity (Hs-578T): inactive
Activity (T47D): inactive
Activity (BT-549): inactive

From ChEMBL document CHEMBL4706554 (Eur J Med Chem, 2020)
